Patent US8741906B2 (priority 2011, dated 2014)

Legend:
human CB2 receptors = target: T1, human CB2 receptors (Homo sapiens, UniProt P34972); assay: functional cAMP assay, human CB2; format: cell-based; settings: CHO cells expressing human CB2, cAMP; read-out: human CB2 EC50
T1 construct: expressed in transfected cells; host or cells: CHO cells
Outline: (§1)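 CHO cells expressing human CB1 or CB2 were preincubated 30 min at 30 °C in Krebs Ringer bicarbonate with 1 mM IBMX, then exposed to compound 30 min at 30 °C. cAMP quantified by TR-FRET competition (Alexa700 antibody/ruthenium-cAMP) against a 10 μM–0.13 nM standard curve; EC50 derived.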

human CB1 receptors = target: T2, human CB1 receptors (Homo sapiens, UniProt P21554); assay: functional cAMP assay, human CB1; format: cell-based; settings: CHO cells expressing human CB1, cAMP; read-out: human CB1 EC50
T2 construct: expressed in transfected cells; host or cells: CHO cells
Outline: as §1

T1 sequence (P34972 whole entry): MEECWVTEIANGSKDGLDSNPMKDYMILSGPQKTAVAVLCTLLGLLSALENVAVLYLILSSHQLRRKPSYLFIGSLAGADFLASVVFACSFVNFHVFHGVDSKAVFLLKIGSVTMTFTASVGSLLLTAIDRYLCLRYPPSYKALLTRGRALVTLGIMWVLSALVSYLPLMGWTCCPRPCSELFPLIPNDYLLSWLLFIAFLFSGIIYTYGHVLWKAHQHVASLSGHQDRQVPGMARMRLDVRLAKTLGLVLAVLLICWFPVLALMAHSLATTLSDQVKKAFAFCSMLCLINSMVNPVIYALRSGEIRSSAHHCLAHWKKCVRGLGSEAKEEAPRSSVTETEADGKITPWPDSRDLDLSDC
T2 sequence (P21554 whole entry): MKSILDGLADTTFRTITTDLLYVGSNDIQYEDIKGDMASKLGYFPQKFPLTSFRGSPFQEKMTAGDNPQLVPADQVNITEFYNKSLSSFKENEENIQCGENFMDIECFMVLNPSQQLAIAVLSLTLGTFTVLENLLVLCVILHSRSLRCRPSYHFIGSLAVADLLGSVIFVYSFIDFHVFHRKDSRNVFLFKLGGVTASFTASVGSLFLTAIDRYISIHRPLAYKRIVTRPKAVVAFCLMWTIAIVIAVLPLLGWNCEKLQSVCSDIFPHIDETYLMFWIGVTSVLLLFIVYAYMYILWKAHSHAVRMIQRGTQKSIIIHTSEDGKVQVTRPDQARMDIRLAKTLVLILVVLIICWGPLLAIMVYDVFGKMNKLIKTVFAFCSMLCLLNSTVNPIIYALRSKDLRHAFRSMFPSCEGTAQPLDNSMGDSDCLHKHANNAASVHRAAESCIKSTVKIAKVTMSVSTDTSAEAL

SMILES	EC50 (human CB2 receptors) [µM]	EC50 (human CB1 receptors) [µM]
CC(C)(C)c1nc(N2CCC(F)(F)C2)c2nnn(Cc3nnnn3C3CC3)c2n1 [Example 157, 5-tert-Butyl-3-(1-cyclopropyl-1H-tetrazol-5-ylmethyl)-7-(3,3-difluoro-pyrrolidin-1-yl)-3H-[1,2,3]triazolo[4,5-d]pyrimidine]	0.0001	> 10
CC(C)(C)c1nc(N2CCC(F)(F)C2)c2nnn(Cc3cccc(C(F)(F)F)c3Cl)c2n1 [Example 120, 5-tert-Butyl-3-(2-chloro-3-trifluoromethyl-benzyl)-7-(3,3-difluoro-pyrrolidin-1-yl)-3H-[1,2,3]triazolo[4,5-d]pyrimidine]	0.0007	0.181
CC(C)(C)c1nc(N2CC[C@@](C)(O)C2)c2nnn(Cc3ccccc3C(F)(F)F)c2n1 [Example 222-b, (R)-1-(5-tert-butyl-3-(2-(trifluoromethyl)benzyl)-3H-[1,2,3]triazolo[4,5-d]pyrimidin-7-yl)-3-methylpyrrolidin-3-ol]	0.0052	> 10
CC(C)(C)c1nc(N2CCC(F)(F)C2)c2nnn(CCc3ccccc3Cl)c2n1 [Example 103, 5-tert-Butyl-3-[2-(2-chloro-phenyl)-ethyl]-7-(3,3-difluoro-pyrrolidin-1-yl)-3H-[1,2,3]triazolo[4,5-d]pyrimidine]	0.0004	0.415
CC(C)(C)c1nc(N2CCC(F)(F)C2)c2nnn(CCc3ccc(Cl)cc3)c2n1 [Example 105, 5-tert-Butyl-3-[2-(4-chloro-phenyl)-ethyl]-7-(3,3-difluoro-pyrrolidin-1-yl)-3H-[1,2,3]triazolo[4,5-d]pyrimidine]	0.0065	> 10
CC(C)(C)c1nc(N2C[C@@H](O)[C@H](O)C2)c2nnn(Cc3ccccc3Cl)c2n1 (relative stereo) [Example 55, 1-[5-tert-Butyl-3-(2-chloro-benzyl)-3H-[1,2,3]triazolo[4,5-c]pyrimidin-7-yl]-pyrrolidine-3,4-trans-diol]	0.0104	> 10
CC(C)(C)c1nc(N2CCCC2(C)C)c2nnn(Cc3ccccc3Cl)c2n1 [Example 29, 5-tert-Butyl-3-(2-chloro-benzyl)-7-(2,2-dimethyl-pyrrolidin-1-yl)-3H-[1,2,3]triazolo[4,5-d]pyrimidine]	0.0125	1.63
CC(C)(C)c1nc(N2CCC(F)(F)C2)c2nnn(CC(=O)c3cccnc3)c2n1 [Example 117, 2-[5-tert-Butyl-7-(3,3-difluoro-pyrrolidin-1-yl)-[1,2,3]triazolo[4,5-d]pyrimidin-3-yl]-1-pyridin 3-yl-ethanone]	0.0002	> 10
Cn1nnnc1Cn1nnc2c(N3CC[C@H](O)[C@@H]3CO)nc(C(C)(C)C)nc21 [Example 165, (2S,3S)-1-[5-tert-Butyl-3-(1-methyl-1H-tetrazol-5-ylmethyl)-3H-[1,2,3]triazolo[4,5-d]pyrimidin-7-yl]-2-hydroxymethyl-pyrrolidin-3-ol]	0.0535	> 10
Cc1cc(Cn2nnc3c(N4CC[C@H](O)C4)nc(C(C)(C)C)nc32)n(C)n1 [Example 155, (S)-1-[5-tert-Butyl-3-(2,5-dimethyl-2H-pyrazol-3-ylmethyl)-3H-[1,2,3]triazolo[4,5-d]pyrimidin-7-yl]-pyrrolidin-3-ol]	0.003	> 10
CC(C)(C)COc1nc(C(C)(C)C)nc2c1nnn2Cc1ccccc1Cl [Example 213, 5-tert-Butyl-3-(2-chloro-benzyl)-7-(2,2-dimethyl-propoxy)-3H-[1,2,3]triazolo[4,5-d]pyrimidine]	0.0596	> 10
Cc1nnc(Cn2nnc3c(N4CC5(COC5)C4)nc(C(C)(C)C)nc32)o1 [Example 181, 5-tert-Butyl-3-(5-methyl-[1,3,4]oxadiazol-2-ylmethyl)-7-(2-oxa-6-aza-spiro[3.3]hept-6-yl)-3H-[1,2,3]triazolo[4,5-d]pyrimidine]	0.0594	> 10
